What was measured:
[1] = test system: human embryonic kidney 293t cell lines; test: Toxicity on human embryonic kidney 293T cells
Protocol: (§1) The following representative compounds are tested for their RORγt inhibitory activity and toxicity.

[2] = test system: Na+/K+-ATPase; settings: compared with digoxin; cited from earlier work
[3] = molecular target: T1, mouse RORγt (Mus musculus, UniProt P51450); test: Drosophila S2 cell RORγt luciferase reporter; assay type: cell-based; settings: for effect on RORγ transcriptional activity: S2 reporter system
T1 construct: mouse RORγt (amino acids 79 to the carboxyl terminal end); expressed in transfected cells
T1 sequence (P51450 79-495 isoform P51450-2): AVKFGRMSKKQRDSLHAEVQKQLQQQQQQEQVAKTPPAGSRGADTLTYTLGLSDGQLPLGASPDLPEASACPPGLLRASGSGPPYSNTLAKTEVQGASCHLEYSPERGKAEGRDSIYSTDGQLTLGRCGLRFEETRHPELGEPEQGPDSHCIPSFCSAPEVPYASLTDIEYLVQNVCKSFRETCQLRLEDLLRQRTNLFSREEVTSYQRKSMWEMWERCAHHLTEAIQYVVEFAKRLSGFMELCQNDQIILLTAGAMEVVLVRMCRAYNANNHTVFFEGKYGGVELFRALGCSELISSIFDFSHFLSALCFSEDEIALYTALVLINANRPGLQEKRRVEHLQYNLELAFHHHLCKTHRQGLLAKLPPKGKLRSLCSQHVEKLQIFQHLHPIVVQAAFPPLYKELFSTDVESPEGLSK
Source text: The Drosophila S2 cell line was originally purchased from Invitrogen and was maintained in Schneider's medium supplemented with 10% heat-inactivated bovine fetal calf serum and antibiotics (Invitrogen). […] The resulting chimeric gene was subcloned into the copper inducible pMT/V5-His A vector (Invitrogen). […] Coding sequences for firefly luciferase (Promega) were PCR amplified and subcloned into pUAST vector containing Gal4 binding enhancer sequences. Renilla luciferase construct under the polIII promoter was obtained from Dr. Dasgupta's laboratory (NYU medical center). In order to generate stable cell lines, cells were co-transfected with pMT-G4 DBD-RORγt, pMT-G4 DBD-RORα, pMT-G4 DBD-DHR3, or pMT-G4 DBDVP16 and pHygro plasmids (Invitrogen) and screened for resistant colonies in the presence of hygromycin (0.3 mg/mL). […] Using similar methods, stable clones with genomic integration of the luciferase reporters and other reporters were generated such as pMT-RORα_luc, pMT-DHR3_Luc, or pMT-VP16_luc.
as §1
Promega Dual-Glo system is widely used for HTS as the luciferase substrates. Cell culture medium was reduced to the final volume of 10 μl or less and 10 μl of Dual-glo and 10 μl of Stop-glo luciferase substrates were added in a sequencial manner (Promega). Firefly and Renilla luciferase activity was determined by measuring luminescence signals using an automated 384-well plate reader equipped with multiple stack units (such as the Analyst GT or Envision plate readers).
10,000 Drosophila stable S2 cells with genomic integration of the Cu2+-inducible G4 DBD-mouse RORγ construct were transfected with 5 ng of pUASTfirefly luciferase and 7 ng of Pol III-Renilla luciferase and dispensed into white bottom-tissue culture 384-well plates (Corning). […] The following morning, Stop-glo luciferase substrates (Promega) were used to measure luciferase activity.
The Drosophila S2 cell line was originally purchased from Invitrogen and was maintained in Schneider's Drosophila medium supplemented with 10% heat-inactivated bovine fetal calf serum and 1× antibiotic-antimycotic solution (Invitrogen). […] The resulting chimeric gene was subcloned into the copper inducible pMT/V5-His A vector (Invitrogen) and into the constitutive pAc vector. […] Coding sequences for firefly luciferase (Promega) were PCR amplified and subcloned into the pUAST vector containing five Gal4 binding enhancer sequences. The Renilla luciferase construct under a pol III promoter and the pAc vector were obtained from R. Dasgupta (NYU School of Medicine). To generate cell lines stably expressing various chimeric proteins upon copper addition, S2 cells were co-transfected with pMT plasmids encoding individual G4 DBD chimeric constructs and the pCoHygro plasmid (Invitrogen), before screening for resistant colonies in the presence of hygromycin (0.3 mg/mL). […] The human androgen receptor (hAR) expression plasmid pMK33-hAR and its reporter TAT3-Luc were obtained from M. Garabedian (NYU School of Medicine). […] R1881 (10 nM) and Dafachronic acid (10 μM) were used as ligands for hAR and Daf12. Upon treatment of cells with copper, in 384 well plates, there was specific increase in firefly luciferase activity versus normalized Renilla luciferase activity for all cell lines described above, validating the method for high-throughput screen.
Transfections of firefly and Renilla reporter constructs were performed using the Effectene kit from Qiagen according to the manufacturer's protocol with some modifications.

[4] = molecular target: T2, human RORγt (Homo sapiens, UniProt P51449); test: IL-17a induction in human CD4+ T cells transduced with RORαd, RORβ or RORγt; assay type: cell-based; settings: 10 μM, FIG. 3b
T2 construct: expressed in transfected cells; host or cells: human CD4+ T cells (cord blood or adult blood), lentiviral HDV-IRES-GFP/HSA vectors
T2 sequence (P51449 1-497 isoform P51449-2): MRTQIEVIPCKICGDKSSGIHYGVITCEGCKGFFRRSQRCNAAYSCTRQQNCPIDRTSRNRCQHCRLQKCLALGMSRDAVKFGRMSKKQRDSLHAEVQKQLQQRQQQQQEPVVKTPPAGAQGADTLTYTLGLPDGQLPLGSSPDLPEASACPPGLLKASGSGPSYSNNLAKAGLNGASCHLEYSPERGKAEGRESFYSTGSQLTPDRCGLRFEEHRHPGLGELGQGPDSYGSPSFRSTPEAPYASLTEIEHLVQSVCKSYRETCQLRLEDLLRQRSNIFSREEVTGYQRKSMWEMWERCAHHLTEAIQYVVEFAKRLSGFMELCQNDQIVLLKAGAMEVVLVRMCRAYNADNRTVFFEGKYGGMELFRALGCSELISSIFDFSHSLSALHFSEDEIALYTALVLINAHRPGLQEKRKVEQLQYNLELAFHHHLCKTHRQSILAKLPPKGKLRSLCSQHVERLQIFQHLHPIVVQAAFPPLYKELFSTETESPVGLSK
Protocol: (§2) GFP expressing cells were gated for analysis. DMSO, Dig(dhd) (40 μM) or Dig(sal) (10 μM) was added 6-8 h after viral transduction. c, Flow cytometry of the production of IL-17a and IFN-γ by human naive cord blood T cells cultured for six days in the presence of IL-2, IL-23, and IL-1β, with various concentrations of TGF-β. DMSO, Dig(dhd), or Dig(sal) at indicated concentrations (μM) was added 16 h after cytokine addition.
(§3) Blood samples were obtained from the New York Blood Center. Mononuclear cells were prepared from buffy coats from healthy adult donors or from cord blood, using FicollPAQUE gradients. CD4^+ T cells were magnetically selected (autoMACS, Miltenyi). Adult memory CD4^+ T cell subsets were further purified as CD3^+CD4^+CD25^− CD45RO^+CCR6^+CD161^+ by cell sorting on a FACSAria (BD). Naive CD4^+ T cells were isolated from cord blood as CD3^+CD4^+CD45RA^+HLA-DR^−CD25^−DAPI^−. Memory cells were activated with anti-CD3/CD28 coated beads (1 bead/cell) in T cell media (see above) supplemented with 100 U/mL IL-2 (Peprotech), 10 ng/mL IL-1b and 10 ng/mL IL-23 (eBioscience). Naive cells were activated with anti-CD3/CD28 beads and cultured with the same cytokines, and TGF-b (0, 0.1, 1, or, 10 ng/mL) (Peprotech), in XVIVO-20 (Lonza) media. […] Naive CD4^+ T cells, cultured in XVIVO-20 media supplemented 100 U/mL IL-2 (Peprotech), were transduced with RORad-IRES-GFP or RORγt-IRES-GFP on day 1 and analyzed on day 6. GFP expressing cells were gated for analysis. DMSO or compounds were added 6-8 hours after the viral transduction.
Blood samples were obtained from the New York Blood Center. Mononuclear cells were prepared from buffy coats from healthy adult donors or from cord blood, using FicollPAQUE gradients. CD4^+ T cells were magnetically selected (autoMACS, Miltenyi). Adult memory CD4+ T cell subsets were further purified as CD3^+CD4^+CD25^−CD45RO^+CCR6^+CD161^+ by cell sorting on a FACSAria (BD). […] Naive CD4+ T cells, cultured in XVIVO-20 media supplemented with 100 U/mL IL-2 (Peprotech), were transduced with RORαd-IRES-GFP or RORγt-IRES-GFP on day 1 and analyzed on day 6. […]

[5] = Precipitation noted in Table 2; assay type: physicochemical
[6] = test system: human Th17 cell differentiation; test: Human Th17 cell differentiation from naive cord blood CD4+ T cells; assay type: cell-based
Protocol: as §2, §3
(§4) Blood samples were obtained from the New York Blood Center. Mononuclear cells were prepared from buffy coats from healthy adult donors or from cord blood, using FicollPAQUE gradients. CD4^+ T cells were magnetically selected (autoMACS, Miltenyi). Adult memory CD4+ T cell subsets were further purified as CD3^+CD4^+CD25^−CD45RO^+CCR6^+CD161^+ by cell sorting on a FACSAria (BD). Naive CD4^+ T cells were isolated from cord blood as CD3^+CD4^+CD45RA^+HLA^−DR^−CD25^−DAPI^−. Memory cells were activated with anti-CD3/CD28 coated beads (1 bead/cell) in T cell media (see above) supplemented with 100 U/mL IL-2 (Peprotech), 10 ng/mL IL-1β and 10 ng/mL IL-23 (eBioscience). Naive cells were activated with anti-CD3/CD28 beads and cultured with the same cytokines, and TGF-β (0, 0.1, 1, or, 10 ng/mL) (Peprotech), in XVIVO-20 (Lonza) media. […] Naive CD4+ T cells, cultured in XVIVO-20 media supplemented with 100 U/mL IL-2 (Peprotech), were transduced with RORαd-IRES-GFP or RORγt-IRES-GFP on day 1 and analyzed on day 6. GFP expressing cells were gated for analysis. DMSO or compounds were added 6-8 hours after the viral transduction.

[7] = test system: IL-17a production in human CD4+ T cells; test: Human cord blood CD4+ T cells expressing murine ATP1a1, Th17 conditions; assay type: cell-based; settings: murine Na+/K+-ATPase α1 expressed, 10 μM
Protocol: as §4

Compound | cytotoxic concentration on human cells [1] | Na+/K+-ATPase inhibition / binding affinity [2] | effect on RORγ transcriptional activity [3] | RORγt-mediated IL-17a induction (versus RORαd) [4] | IC50 [3] | Note [5] | IFN-γ expression in T cells ([6]; FIG. 3c) | Th17 cell differentiation ([6]; FIG. 3c) | inhibition at 10 µM ([6]; Homo sapiens, CD4+ T, at 10 uM) | IL-17a expression [7]
CC1OC(OC2C(O)CC(OC3C(O)CC(OC4CCC5(C)C(CCC6C5CC(O)C5(C)C(C7COC(=O)C7)CCC65O)C4)OC3C)OC2C)CC(O)C1O (centres unmarked) [20,22-Dihydrodigoxin] | 2.5 µM | much lower binding affinity than that of digoxin | inhibited |  |  |  |  |  |  | 
CC1OC(OC2C(O)CC(OC3C(O)CC(OC4CCC5(C)C(CCC6C5CC(O)C5(C)C(C7=CC(=O)OC7=Cc7ccccc7O)CCC65O)C4)OC3C)OC2C)CC(O)C1O (centres unmarked) [Compound 15, Digoxin-21-salicylidene] |  |  |  | selectively suppressed | < 1000 nM | precipitate at high | reciprocal increases | blocked | ~70% | 
CC(=O)O[C@H]1C[C@H](O[C@H]2[C@@H](O)C[C@H](O[C@H]3[C@@H](O)C[C@H](O[C@H]4CC[C@@]5(C)[C@H](CC[C@@H]6[C@@H]5C[C@@H](O)[C@]5(C)[C@@H](C7=CC(=O)OC7)CC[C@]65O)C4)O[C@@H]3C)O[C@@H]2C)O[C@H](C)[C@H]1O[C@@H]1O[C@H](CO)[C@@H](O)[C@H](O)[C@H]1O [lanatoside C, Lanatoside C] |  |  | no significant effect |  |  |  |  |  |  | no effect

From US9505798B2, “Steroid compounds as RORyt modulators and uses thereof” (New York University, priority 2010, dated 2016)
